Active and inactive are the calls of the source. Unless noted, no cut-off for these calls is given here.
Legend:
[1] = molecular target: Platelet-activating factor acetylhydrolase (Mus musculus, UniProt Q60963); assay: Late stage assay provider results from the probe development effort to identify inhibitors of plasma platelet activating factor acetylhydrolase (pPAFAH): fluorescence-based dose response biochemical gel-based competitive Activity-Based Protein Profiling (ABPP) assay for HTS compounds. [Related pubchem assays (depositor defined):AID463082, AID463092, AID463230, AID588474]; assay type: cell-free
[2] = A Cell Based Secondary Assay to Explore Cytotoxicity in HepG2 Cells of Compounds that Modulate Mycobacterium tuberculosis in Media Containing Glycerol versus Media without Glycerol (2).; assay type: functional
[3] = A Cell Based Secondary Assay to Explore Cytotoxicity in THP-1 Cells of Compounds that Modulate Mycobacterium tuberculosis in Media Containing Glycerol versus Media without Glycerol (2).; assay type: functional
[4] = microbe, parasite or virus in culture; assay type: functional; details: Mycobacterium tuberculosis
[5] = Vero cell cytotoxicity, cytotoxicity control for M. tuberculosis inhibitor project, purified and synthesized samples, set 3 (AID 504684); assay type: functional
[6] = molecular target: G-protein coupled receptor 55 (Homo sapiens, UniProt Q9Y2T6); assay: selective activators of receptor GPR55 – imaging, U2OS cells, beta-arrestin-GFP redistribution, primary screen (AID 1961); assay type: functional
Beta Lactamase = Beta Lactamase (Pseudomonas aeruginosa, UniProt Q932Y6); assay: BLA reporter interference, concentration series – BLA reporter cells, FRET fluorescence, artefact control for TLR9-MyD88 binding inhibitor project, dose response (AID 588341); assay type: cell-based;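 note: cell based assay in CHO-K1 cells stably expressing beta-lactamase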
[7] = molecular target: T1, Botulinum neurotoxin type A (Clostridium botulinum (strain Hall / ATCC 3502 / NCTC 13319 / Type A), UniProt P0DPI1); assay: High-throughput multiplex microsphere dose response for inhibitors of toxin protease, specifically Botulinum neurotoxin light chain A protease, compounds from Cherry Pick 01.; assay type: functional; details: read-out: EC50_MICROM
[8] = molecular target: T2, Botulinum neurotoxin type F (Clostridium botulinum, UniProt P30996); assay: High-throughput multiplex microsphere dose response for inhibitors of toxin protease, specifically Botulinum neurotoxin light chain F protease, compounds from Powder Set 01.; assay type: functional, Clostridium botulinum Bf; details: read-out: EC50_MICROM
[9] = molecular target: T1, Botulinum neurotoxin type A; assay: Confirmatory FRET assay using full length substrates for Botulinum neurotoxin light chain A protease, with Powder Set01.; assay type: functional
[10] = molecular target: T2, Botulinum neurotoxin type F; assay: High-throughput multiplex microsphere dose response for inhibitors of toxin protease, specifically Botulinum neurotoxin light chain F protease, compounds from Cherry Pick 01.; assay type: functional; details: read-out: EC50_MICROM
[11] = molecular target: T1, Botulinum neurotoxin type A; assay: High-throughput multiplex microsphere dose response for inhibitors of toxin protease, specifically Botulinum neurotoxin light chain A protease, compounds from Powder Set 01.; assay type: functional, Clostridium botulinum A str. ATCC 3502; details: read-out: EC50_MICROM
[12] = molecular target: 5-hydroxytryptamine receptor 1E (Homo sapiens, UniProt P28566); assay: Counterscreen assay for S1P3 antagonists: Dose response cell-based high throughput screening assay to identify antagonists of the 5-Hydroxytryptamine Receptor Subtype 1E (5HT1E). [Related pubchem assays: 1429, 485 ]; assay type: functional
[13] = molecular target: Sphingosine 1-phosphate receptor 3 (Homo sapiens, UniProt Q99500); assay: Dose response cell-based high throughput screening assay for antagonists of the Sphingosine 1-Phosphate Receptor 3 (S1P3). [Related pubchem assays: 1429, 485 ]; assay type: functional
CHO = CHO cell viability loss, potency – luminescence, cytotoxicity control for TLR9-MyD88 binding inhibitor project, dose response (AID 588339); assay type: functional, cell-based, hamster; details: Cricetulus griseus;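 note: CHO cells stably coexpressing TLR9 and MyD88 fusions from primary screen; compound exposure lasted 48 hours before viability readout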

T1 sequence (P0DPI1 2-448 limits assumed): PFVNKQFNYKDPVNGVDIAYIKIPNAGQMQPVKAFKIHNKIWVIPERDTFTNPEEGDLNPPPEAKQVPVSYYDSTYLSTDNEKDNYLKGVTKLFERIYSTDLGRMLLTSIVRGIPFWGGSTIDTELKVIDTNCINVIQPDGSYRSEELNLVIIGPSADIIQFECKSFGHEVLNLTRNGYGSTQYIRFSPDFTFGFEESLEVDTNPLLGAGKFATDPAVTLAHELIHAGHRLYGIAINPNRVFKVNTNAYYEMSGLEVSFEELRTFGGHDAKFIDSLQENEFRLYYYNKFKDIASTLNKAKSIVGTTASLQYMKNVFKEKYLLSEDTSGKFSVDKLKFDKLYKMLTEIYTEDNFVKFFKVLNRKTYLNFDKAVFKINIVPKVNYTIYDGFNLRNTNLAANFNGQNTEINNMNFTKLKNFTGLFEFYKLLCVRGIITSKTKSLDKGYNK
T2 sequence (P30996 1-436 limits assumed): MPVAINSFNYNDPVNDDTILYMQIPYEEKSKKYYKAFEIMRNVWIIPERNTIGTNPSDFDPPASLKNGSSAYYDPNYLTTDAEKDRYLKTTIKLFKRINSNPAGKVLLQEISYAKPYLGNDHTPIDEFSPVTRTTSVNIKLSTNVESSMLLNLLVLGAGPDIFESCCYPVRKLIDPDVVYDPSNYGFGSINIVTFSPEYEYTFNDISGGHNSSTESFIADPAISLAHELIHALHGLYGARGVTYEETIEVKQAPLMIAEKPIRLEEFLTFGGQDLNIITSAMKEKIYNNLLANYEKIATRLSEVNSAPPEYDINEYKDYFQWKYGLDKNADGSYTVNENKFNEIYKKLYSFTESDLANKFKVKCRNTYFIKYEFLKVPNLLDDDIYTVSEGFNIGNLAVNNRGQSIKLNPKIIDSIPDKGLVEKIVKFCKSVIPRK
Sequence of G-protein coupled receptor 55 (Q9Y2T6 whole entry): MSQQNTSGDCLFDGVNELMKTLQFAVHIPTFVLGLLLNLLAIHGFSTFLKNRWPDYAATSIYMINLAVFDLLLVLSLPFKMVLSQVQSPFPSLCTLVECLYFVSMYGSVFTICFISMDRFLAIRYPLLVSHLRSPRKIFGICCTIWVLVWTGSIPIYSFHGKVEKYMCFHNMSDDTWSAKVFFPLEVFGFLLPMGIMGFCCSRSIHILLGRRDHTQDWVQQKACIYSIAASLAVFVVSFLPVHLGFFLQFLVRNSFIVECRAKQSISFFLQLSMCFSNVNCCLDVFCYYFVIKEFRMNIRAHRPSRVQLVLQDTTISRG
Sequence of 5-hydroxytryptamine receptor 1E (P28566 whole entry): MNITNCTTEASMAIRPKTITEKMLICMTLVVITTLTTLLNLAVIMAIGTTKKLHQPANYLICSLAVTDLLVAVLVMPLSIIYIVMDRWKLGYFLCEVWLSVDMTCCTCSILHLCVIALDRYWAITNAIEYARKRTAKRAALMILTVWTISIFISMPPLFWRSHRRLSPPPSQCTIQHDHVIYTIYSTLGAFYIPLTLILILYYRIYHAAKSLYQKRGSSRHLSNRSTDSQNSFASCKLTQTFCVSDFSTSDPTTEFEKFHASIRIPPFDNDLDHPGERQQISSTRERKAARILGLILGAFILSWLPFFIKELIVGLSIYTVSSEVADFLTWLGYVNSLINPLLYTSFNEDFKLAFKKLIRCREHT
Sequence of Platelet-activating factor acetylhydrolase (Q60963 whole entry): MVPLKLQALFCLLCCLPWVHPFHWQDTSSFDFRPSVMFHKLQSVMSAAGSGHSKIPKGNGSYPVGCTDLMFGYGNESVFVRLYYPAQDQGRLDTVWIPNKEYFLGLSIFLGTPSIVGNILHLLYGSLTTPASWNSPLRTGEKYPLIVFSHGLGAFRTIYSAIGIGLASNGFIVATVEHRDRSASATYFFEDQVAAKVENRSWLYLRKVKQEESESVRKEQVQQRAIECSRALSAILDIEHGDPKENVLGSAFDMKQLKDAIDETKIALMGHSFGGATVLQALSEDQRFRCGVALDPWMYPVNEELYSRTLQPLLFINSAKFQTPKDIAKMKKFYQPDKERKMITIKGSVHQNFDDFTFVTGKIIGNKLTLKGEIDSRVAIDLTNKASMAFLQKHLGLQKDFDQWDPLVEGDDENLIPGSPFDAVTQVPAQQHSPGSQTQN
Sequence of Sphingosine 1-phosphate receptor 3 (Q99500 whole entry, the tested form may be a part): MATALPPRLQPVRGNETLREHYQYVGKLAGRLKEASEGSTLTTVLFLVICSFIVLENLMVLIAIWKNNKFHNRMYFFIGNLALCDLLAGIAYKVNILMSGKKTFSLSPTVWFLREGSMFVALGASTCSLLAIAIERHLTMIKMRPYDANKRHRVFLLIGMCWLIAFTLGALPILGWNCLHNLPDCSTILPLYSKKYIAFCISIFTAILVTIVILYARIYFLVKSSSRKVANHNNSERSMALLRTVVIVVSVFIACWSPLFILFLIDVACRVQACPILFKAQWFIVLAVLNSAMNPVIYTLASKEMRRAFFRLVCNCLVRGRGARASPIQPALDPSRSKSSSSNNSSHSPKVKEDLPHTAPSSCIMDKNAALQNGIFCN
Sequence of Beta Lactamase (Q932Y6 whole entry): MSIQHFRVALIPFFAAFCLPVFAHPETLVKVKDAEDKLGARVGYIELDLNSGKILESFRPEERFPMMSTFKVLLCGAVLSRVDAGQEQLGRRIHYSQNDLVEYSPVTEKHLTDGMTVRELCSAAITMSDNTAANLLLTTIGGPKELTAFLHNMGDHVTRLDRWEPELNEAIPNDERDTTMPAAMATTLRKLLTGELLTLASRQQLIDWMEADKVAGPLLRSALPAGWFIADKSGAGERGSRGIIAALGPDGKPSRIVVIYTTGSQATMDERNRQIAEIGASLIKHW

In the case of `CN(C)C(=O)Oc1noc2cc(Cl)ccc12`, the IC50 [1] is reported as 0.234 µM (active).

In the case of `Oc1ccccc1/C=N/Nc1ccnc(SCc2ccccc2)n1`, the CC50 [2] is reported as 18.5 µM (active), the CC50 [3] is reported as 57.4 µM (active) and the CC50 [4] is reported as > 40 µM (active). For the same compound, the CC50 [5] was 26.7 µM (active).

For `O=[N+]([O-])c1ccc(C2=NN(c3ccccc3)C(c3ccco3)C2)cc1` (stereo not given), the EC50 [6] was < 0.5 µM (active), the IC50 (Beta Lactamase) was 2.64 µM (active) and the EC50 [7] was 2.6 µM (active). The EC50 [8] was 0.5 µM (active), the EC50 [9] was 3.1 µM (active) and the EC50 [10] was 1.5 µM (active). The EC50 [11] was 0.4 µM (active), the IC50 [12] was 2.49 µM (active) and the IC50 [13] was 3.78 µM (active). For the same compound, the IC50 (CHO) was > 49.7 µM (inactive).

From ChEMBL document CHEMBL1201862, “PubChem BioAssay data set” (2004)
